Data taken from PMC9921896 (Molecules, 2023).

Key:
CYP1A2 = target: T1, CYP1A2 (Homo sapiens, UniProt P05177); experiment: Single concentration Kobs assay (time-dependent inhibition) in HLM; assay type: biochemical; conditions: for Kobs 1A2: HLM, 0.02 min^−1 indicates TD inhibition potential; for Kobs 1A2 / inhibition at 30 min: single concentration; for Single concentration Kobs assay (risk bin) 1A2: TD inhibition class from Kobs vs 0.02 min^−1 (Table 5 traffic lights); for inhibition at 30 min: human, human liver microsomes, significant if >50%, read-out: 1A2 R_Inh% (reversible inhibition)
T1 construct: Using HLM as the enzyme source; from tissue; host or cells: human liver microsomes
T1 sequence (P05177 1-516): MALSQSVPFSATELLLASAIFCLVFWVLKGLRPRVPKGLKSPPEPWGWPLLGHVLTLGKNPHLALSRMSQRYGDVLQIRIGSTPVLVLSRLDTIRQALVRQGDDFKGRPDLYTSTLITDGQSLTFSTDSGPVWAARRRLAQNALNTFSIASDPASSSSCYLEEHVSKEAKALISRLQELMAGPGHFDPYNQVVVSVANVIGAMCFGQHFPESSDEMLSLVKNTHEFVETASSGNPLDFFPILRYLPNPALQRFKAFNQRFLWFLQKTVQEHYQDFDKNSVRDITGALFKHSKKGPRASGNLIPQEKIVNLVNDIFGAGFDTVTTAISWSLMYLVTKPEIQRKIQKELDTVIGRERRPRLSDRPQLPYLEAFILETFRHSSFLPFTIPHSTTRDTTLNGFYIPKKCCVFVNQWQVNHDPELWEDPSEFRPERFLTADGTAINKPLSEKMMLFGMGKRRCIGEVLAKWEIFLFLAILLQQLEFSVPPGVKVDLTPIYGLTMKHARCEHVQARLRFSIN
Source text: (§1) CYP inhibition evaluation is typically performed by either IC50 at single-point or IC50 Shift or abbreviated assay such as the first-order inactivity rate constant (K obs ) at single concentration.
(§2) This method yielded good correlations between the percent inhibition at 10 or 25 μ M and kinact/KI. Evaluation of TD inhibition at single concentration has been implemented in several drug discovery programs. […] Therefore, in this study, a single K obs approach has been utilized to understand the TD inhibition potential of TbB ligands. Ideally, the inhibition of CYPs can be reversible or irreversible. The data obtained from single-concentration K obs studies were analyzed to understand the same. From the data presented in Table 4, the TbB ligands have values less than 50% for reversible inhibition (R_Inh). As the qualified % reversible inhibition is considered significant if >50%, no significant reversible inhibition is observed for TbB ligands. Knowledge about enzyme inactivation half-life (E½) is also equally important as it would provide insight into the TD inhibition of a compound. E½ can be used to bin the compounds as positive or negative TD inhibitors if the values are <28 or >28, respectively. The TbB ligand 223-2 is observed to be a weak positive TD inhibitor of 1A2 and is negative TD inhibitor to the other six CYP isoforms.
(§3) The time-dependent inhibition (TDI) potential of test compounds against CYP1A2, 2B6, 2C8, 2C9, 2C19, 2D6, 3A4/5 isoforms were determined using Human liver microsomes. Assay is performed in 96-deep well plate format (n = 1). Positive controls and DMSO as negative control in each assay. To obtain 100 μ M working stock solution, 1 μ L of blank DMSO/test/reference compounds to 100 μ L 1× DPBS buffer was added and labeled as dilution plate. To the primary incubation plate, 45 μ L of primary mix was dispensed to the desired wells containing 25 μ L HLM, 10 μ L MgCl2, and 10 μ L of NADPH working solutions. To the secondary incubation plate, 95 μ L of secondary mix was dispensed to the desired wells containing 20 μ L MgCl2, 20 μ L NADPH, 10 μ L respective substrates for CYP isoform working solutions and 45 μ L 1× DPBS buffer. […] Pre-incubated the dilution plate along with primary incubation plate at 37 °C for 15 min at 450 rpm. The reaction was carried out in triplicate. After the incubation, the reaction was quenched by adding 150 μ L ice cold stop solution to all the wells followed by centrifuging the samples at 4000 rpm, 4 °C for 15 min. The supernatant samples were then transferred into vials for LC-MS/MS analysis. […]

CYP2C19 = target: T2, CYP2C19 (Homo sapiens, UniProt P33261); experiment: as above; assay type: biochemical; conditions: for Kobs 2C19: HLM, 0.02 min^−1 indicates TD inhibition potential; for Kobs 2C19 / inhibition at 30 min: single concentration; for Single concentration Kobs assay (risk bin) 2C19: TD inhibition class from Kobs vs 0.02 min^−1 (Table 5 traffic lights); for inhibition at 30 min: human, human liver microsomes, significant if >50%, read-out: 2C19 R_Inh% (reversible inhibition)
T2 construct: Using HLM as the enzyme source; from tissue; host or cells: human liver microsomes
T2 sequence (P33261 whole entry): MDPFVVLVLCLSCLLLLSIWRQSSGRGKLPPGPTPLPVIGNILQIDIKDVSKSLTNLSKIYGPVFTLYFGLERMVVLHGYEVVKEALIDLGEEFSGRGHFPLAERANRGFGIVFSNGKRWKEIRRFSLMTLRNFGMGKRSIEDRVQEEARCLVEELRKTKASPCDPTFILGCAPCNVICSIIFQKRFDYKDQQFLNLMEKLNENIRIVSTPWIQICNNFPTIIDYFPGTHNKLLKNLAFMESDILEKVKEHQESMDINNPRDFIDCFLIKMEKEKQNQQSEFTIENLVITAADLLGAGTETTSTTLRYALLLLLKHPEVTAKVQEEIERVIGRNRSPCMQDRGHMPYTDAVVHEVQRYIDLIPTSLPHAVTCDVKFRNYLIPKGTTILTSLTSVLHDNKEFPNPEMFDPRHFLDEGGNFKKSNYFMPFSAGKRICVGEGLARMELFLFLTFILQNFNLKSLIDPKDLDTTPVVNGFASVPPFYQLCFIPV
Source text: as §1, §2, §3

[1] = Substrate depletion assay in cryopreserved human hepatocytes (CPHH); assay type: in vitro ADME; conditions: pooled cryopreserved human hepatocytes; for half-life at 1 µM: pH 7.3, test conc. 1.0E-06 M (Table S4); for half-life / hepatocyte CLint: pH 7.3, test conc. 1×10^−6 M, n = 3
Method: Microsomal stability was determined for the TbB ligands by monitoring the presence of compound after incubation in CPHH and HLM, as shown in Figure 7 and Figure S18 of the Supporting Information. […] Such an observation with NCEs is common because, with HLM, NADPH is used as a cofactor, thereby focusing mainly on phase 1 oxidation pathways such as P450 metabolism. Although additional enzymes, such as UDP-glucuronosyltransferase (UGTs), are present in HLM, the lack of the associated necessary cofactors prevents them from being functionally active (e.g., uridine diphosphate glucuronic acid (UDPGA)). In contrast, all the three TbB ligands metabolized in cryopreserved hepatocytes (Figure 7). […] The reason could be that hepatocytes have all the necessary enzymes and cofactors for the metabolic processes. Since they contain the complete set of oxidative/reductive, hydrolytic, and conjugative drug metabolizing enzymes found in the liver, they are regarded as the gold standard. Therefore, they are preferred in vitro options for expressing metabolic stability as substrate depletion, total metabolic clearance, and T 1/2 [29].
From the plot shown in Figure S18 of the Supporting Information, it can be inferred that the TbB ligands undergo slow biotransformation in HLM. Such high metabolic stability may result in drug interactions leading to toxicity of the parent compound. On the contrary, TbB ligands are undergoing rapid biotransformation in CPHH (Figure 7), and this may lead to generation of metabolites that are either toxic, active, or nonactive. Metabolic stability is typically expressed by in vitro half-life T 1/2 and intrinsic clearance (CLint) terms. Intrinsic clearance (CLint) is measured using the substrate depletion method. It describes the maximum liver (microsomal proteins or hepatocytes) activity towards a compound not affected by other physiological factors such as hepatic blood flow and drug binding within the blood matrix. T 1/2 is used to express the time for the 50% disappearance of the parent compound. A possible explanation for the difference in metabolic stability might be that the TbB ligands bind to microsomes during incubation. This can result in decreased free TbB ligand levels available to interact with metabolizing enzymes, reducing apparent intrinsic clearance values.
The test compound stability in a pooled human cryopreserved hepatocytes was tested after thawing, washing, and resuspending the cryopreserved hepatocytes in Krebs–Heinslet buffer (pH 7.3). The onset of reaction happens by the addition of the test compound into cell suspension and incubated for 0, […], 1, 1.5, and 2 h, respectively, at 37 °C/5% CO 2 . The reaction is terminated in the incubation mixture by the addition of acetonitrile. After thorough sample mixing, the sample was completely transferred to another 96-well plate and centrifuged, followed by HPLC-MS/MS analysis of supernatant. Four compounds as reference, namely, propranolol, a relatively stable and readily metabolizing flurazepam, naloxone, and HFC (7-hydroxy-4-trifluoromethyl-coumarin) in human hepatocytes were included in each assay. Data analysis was performed as mentioned above and the intrinsic clearance (CLint) is calculated from the half-life using the following equation. CLint(μL/min/millioncells)=0.693/T1/2×CellDensity.

| SMILES | Kobs 1A2 (CYP1A2) [min⁻¹] | Kobs 1A2 (CYP1A2; listed as 223-02) [min⁻¹] | Single concentration Kobs assay (risk bin) 1A2 (CYP1A2) | inhibition at 30 min (CYP1A2) [%] | Kobs 2C19 (CYP2C19) [min⁻¹] | Kobs 2C19 (CYP2C19; listed as 223-02) [min⁻¹] | Single concentration Kobs assay (risk bin) 2C19 (CYP2C19) | inhibition at 30 min (CYP2C19) [%] | half-life at 1 µM [1] [min] | half-life [1] [min] | hepatocyte CLint [1] [µL/min/1e6 cells] | Kobs 1A2 (CYP1A2; listed as 223-03) [min⁻¹] | Kobs 2C19 (CYP2C19; listed as 223-03) [min⁻¹] |
| --- | --- | --- | --- | --- | --- | --- | --- | --- | --- | --- | --- | --- | --- |
| COc1cc(-c2nnn(-c3cc(OC)c(O)c(OC)c3)n2)cc(OC)c1O [223-2] | 0.0159 | 0.01594 | weak positive inhibitor | < 50 | 0.0206 | 0.02058 | weak positive inhibitor | < 50 | 33 | 33 | 29.8 |  |  |
| Cc1cc(-c2nnn(-c3cc(C)c(O)c(C)c3)n2)cc(C)c1O [223-3] | 0.0333 |  | positive inhibitor | < 50 | 0.0306 |  | positive inhibitor | < 50 | 54 | 54 | 18.4 | 0.03334 | 0.03055 |
| Oc1ccc(-c2nnn(-c3ccc(O)cc3)n2)cc1 [223-10] | 0.01456 |  | weak positive inhibitor | < 50 | 0.00365 |  | negative inhibitor | < 50 | 36 | 36 | 27.8 |  |  |
